According to article PMC4965013, “Open Source Drug Discovery with the Malaria Box Compound Collection for Neglected Diseases and Beyond” (PLoS Pathogens, 2016):

Tests used:
[1] = system: P. falciparum; assay: EC50 listed in S2 Table Metabolomics (used to set the concentration tested); assay type: cell-based; details: Plasmodium falciparum; EC50 used for Factor_XEC50 in metabolomics; read-out: EC50_nM
[2] = system: P. falciparum 3D7 trophozoites; assay: Metabolomic fingerprint profiling LC-MS; assay type: cell-based, Plasmodium falciparum; set-up: UDP-D-glucose / ADP-D-glucose: unit not given here; details: for Acetyllysine / N-acetyl-L-ornithine / N-carbamoyl-L-aspartate / NADPH / dAMP / dCMP / dTDP / dTMP / dTTP / dihydroorotate / orotate / DLH / DLS/SDL/SID / PD / PEE / PVNF / 3-phosphoglycerate / ADP-D-glucose / ATP / CDP / D-sedoheptulose-1/7-phosphate / FAD / GMP / NAD+ / NADP+ / Octoluse Bisphosphate / Pyroglutamic acid / UDP-D-glucose / UDP-D-glucuronate / UDP-N-acetyl-glucosamine / UDP / UMP / UTP / a-ketoglutarate / citrate/isocitrate / cytidine / dATP / dGMP/AMP / fumarate / glucose-1/6-phosphate / glycerate / guanine / guanosine / hypoxanthine / indole / inosine / nicotinate / ornithine / phosphoenolpyruvate / pyruvate / ribose-phosphate / sarcosine/alanine / sn-glycerol-3-phosphate / succinate/methylmalonic acid / uridine / xanthosine: S2 Table Metabolomics; for Acetyllysine: metabolite Acetyllysine; for N-acetyl-L-ornithine: metabolite N-acetyl-L-ornithine; for N-carbamoyl-L-aspartate: metabolite N-carbamoyl-L-aspartate; for NADPH: metabolite NADPH; for dAMP: metabolite dAMP; for dCMP: metabolite dCMP; for dTDP: metabolite dTDP; for dTMP: metabolite dTMP; for dTTP: metabolite dTTP; for dihydroorotate: metabolite dihydroorotate; for orotate: metabolite orotate; for DLH: peptide DLH; for DLS/SDL/SID: peptide DLS/SDL/SID; for PD: peptide PD; for PEE: peptide PEE; for PVNF: peptide PVNF; for 3-phosphoglycerate: metabolite 3-phosphoglycerate; for ADP-D-glucose: metabolite ADP-D-glucose; for ATP: metabolite ATP; for CDP: metabolite CDP; for CDP / D-sedoheptulose-1/7-phosphate / GMP / Octoluse Bisphosphate / UDP / UMP / UTP / citrate/isocitrate / dGMP/AMP / fumarate / glucose-1/6-phosphate / glycerate / guanine / guanosine / inosine / pyruvate / sarcosine/alanine / succinate/methylmalonic acid / uridine / xanthosine: change in metabolite level after compound treatment; for D-sedoheptulose-1/7-phosphate: metabolite D-sedoheptulose-1/7-phosphate; for FAD: metabolite FAD; for GMP: metabolite GMP; for NAD+: metabolite NAD+; for NADP+: metabolite NADP+; for Octoluse Bisphosphate: metabolite Octoluse Bisphosphate; for Pyroglutamic acid: metabolite Pyroglutamic acid; for UDP-D-glucose: metabolite UDP-D-glucose; for UDP-D-glucuronate: metabolite UDP-D-glucuronate; for UDP-N-acetyl-glucosamine: metabolite UDP-N-acetyl-glucosamine; for UDP: metabolite UDP; for UMP: metabolite UMP; for UTP: metabolite UTP; for a-ketoglutarate: metabolite a-ketoglutarate; for citrate/isocitrate: metabolite citrate/isocitrate; for cytidine: metabolite cytidine; for dATP: metabolite dATP; for dGMP/AMP: metabolite dGMP/AMP; for fumarate: metabolite fumarate; for glucose-1/6-phosphate: metabolite glucose-1/6-phosphate; for glycerate: metabolite glycerate; for guanine: metabolite guanine; for guanosine: metabolite guanosine; for hypoxanthine: metabolite hypoxanthine; for indole: metabolite indole; for inosine: metabolite inosine; for 2_3-Diphosphoglyceric acid / 4-phosphopantothenate / 6-phospho-D-gluconate / FMN / IMP / Pyrophosphate / Sedoheptoluse bisphosphate / cyclic-AMP / glutathione disulfide / lactate / myo-inositol: metabolite level change after treatment; for nicotinate: metabolite nicotinate; for ornithine: metabolite ornithine; for phosphoenolpyruvate: metabolite phosphoenolpyruvate; for pyruvate: metabolite pyruvate; for ribose-phosphate: metabolite ribose-phosphate; for sarcosine/alanine: metabolite sarcosine/alanine; for sn-glycerol-3-phosphate: metabolite sn-glycerol-3-phosphate; for succinate/methylmalonic acid: metabolite succinate/methylmalonic acid; for uridine: metabolite uridine; for xanthosine: metabolite xanthosine

SMILES: Cc1cc(C=C2SC(=Nc3ccccc3)N(C3CCCC3)C2=O)c(C)n1-c1ccc(Cl)cc1 [MMV666688]
- EC50 [1]: 263 nM
- Acetyllysine [2]: -0.1624
- N-acetyl-L-ornithine [2]: -0.0421
- N-carbamoyl-L-aspartate [2]: 1.4864
- NADPH [2]: 0.2408
- dAMP [2]: 0.03218
- dCMP [2]: -0.069
- dTDP [2]: -0.4979
- dTMP [2]: -0.4157
- dTTP [2]: -0.4815
- dihydroorotate [2]: 2.242
- orotate [2]: -0.3391
- DLH [2]: -0.1014
- DLS/SDL/SID [2]: -0.07676
- PD [2]: 0.01194
- PEE [2]: -0.1091
- PVNF [2]: -0.1399
- 3-phosphoglycerate [2]: -0.02892
- ADP-D-glucose [2]: -0.07639
- ATP [2]: -0.1967
- CDP [2]: -0.456
- D-sedoheptulose-1/7-phosphate [2]: -0.2168
- FAD [2]: -0.003318
- GMP [2]: 0.2544
- NAD+ [2]: -0.2173
- NADP+ [2]: -0.08704
- Octoluse Bisphosphate [2]: -0.1579
- Pyroglutamic acid [2]: 0.04307
- UDP-D-glucose [2]: -0.04445
- UDP-D-glucuronate [2]: -0.08539
- UDP-N-acetyl-glucosamine [2]: -0.1189
- UDP [2]: -0.6253
- UMP [2]: -0.03143
- UTP [2]: -0.1882
- a-ketoglutarate [2]: 0.009693
- citrate/isocitrate [2]: -0.05943
- cytidine [2]: 0.03268
- dATP [2]: 0.7542
- dGMP/AMP [2]: -0.3421
- fumarate [2]: -0.03259
- glucose-1/6-phosphate [2]: 0.01665
- glycerate [2]: 0.07227
- guanine [2]: 0.07709
- guanosine [2]: 0.1849
- hypoxanthine [2]: 0.08201
- indole [2]: 0.1358
- inosine [2]: 0.04909
- 2_3-Diphosphoglyceric acid [2]: -0.2563
- 4-phosphopantothenate [2]: -0.1327
- 6-phospho-D-gluconate [2]: -0.08404
- FMN [2]: -0.1061
- IMP [2]: -0.002655
- Pyrophosphate [2]: 0.3465
- Sedoheptoluse bisphosphate [2]: -0.1911
- cyclic-AMP [2]: -0.1214
- glutathione disulfide [2]: -0.05112
- lactate [2]: 0.01618
- myo-inositol [2]: 0.01299
- nicotinate [2]: -0.0155
- ornithine [2]: -0.1088
- phosphoenolpyruvate [2]: -0.02123
- pyruvate [2]: 0.008296
- ribose-phosphate [2]: -0.004186
- sarcosine/alanine [2]: -0.1822
- sn-glycerol-3-phosphate [2]: 0.09746
- succinate/methylmalonic acid [2]: -0.05454
- uridine [2]: -0.08058
- xanthosine [2]: 0.111

SMILES: COc1ccc(C=C2SC(=N)N(c3ccccc3OC)C2=O)cc1 [MMV666691]
- EC50 [1]: 168 nM
- Acetyllysine [2]: -0.06113
- N-acetyl-L-ornithine [2]: -0.04858
- N-carbamoyl-L-aspartate [2]: 3.121
- NADPH [2]: 0.04672
- dAMP [2]: -0.1913
- dCMP [2]: 0.1375
- dTDP [2]: -0.4485
- dTMP [2]: -0.268
- dTTP [2]: -0.128
- dihydroorotate [2]: 3.607
- orotate [2]: -0.9141
- DLH [2]: 0.157
- DLS/SDL/SID [2]: 0.06441
- PD [2]: 0.6447
- PEE [2]: 0.2278
- PVNF [2]: 0.06954
- 3-phosphoglycerate [2]: -0.08972
- ADP-D-glucose [2]: 0.2678
- ATP [2]: 0.4861
- CDP [2]: 0.2338
- D-sedoheptulose-1/7-phosphate [2]: 0.4395
- FAD [2]: 0.4218
- GMP [2]: -0.5619
- NAD+ [2]: 0.2782
- NADP+ [2]: 0.1223
- Octoluse Bisphosphate [2]: 0.2088
- Pyroglutamic acid [2]: -0.1274
- UDP-D-glucose [2]: 0.2576
- UDP-D-glucuronate [2]: 0.2671
- UDP-N-acetyl-glucosamine [2]: 0.2054
- UDP [2]: -0.5559
- UMP [2]: -0.8809
- UTP [2]: -0.652
- a-ketoglutarate [2]: -0.2164
- citrate/isocitrate [2]: -0.06979
- cytidine [2]: 0.2052
- dATP [2]: 0.5778
- dGMP/AMP [2]: -0.07557
- fumarate [2]: 0.7045
- glucose-1/6-phosphate [2]: 0.363
- glycerate [2]: 0.3396
- guanine [2]: 0.3707
- guanosine [2]: 0.4982
- hypoxanthine [2]: 0.09969
- indole [2]: 0.002472
- inosine [2]: 0.382
- 2_3-Diphosphoglyceric acid [2]: 0.1853
- 4-phosphopantothenate [2]: -0.1622
- 6-phospho-D-gluconate [2]: 0.4512
- FMN [2]: 0.2558
- IMP [2]: 0.07363
- Pyrophosphate [2]: 0.16
- Sedoheptoluse bisphosphate [2]: 0.2481
- cyclic-AMP [2]: 0.2139
- glutathione disulfide [2]: 0.5647
- lactate [2]: 0.06184
- myo-inositol [2]: 0.08809
- nicotinate [2]: 0.1482
- ornithine [2]: 0.1318
- phosphoenolpyruvate [2]: -0.1506
- pyruvate [2]: -0.3002
- ribose-phosphate [2]: 0.1031
- sarcosine/alanine [2]: 0.4028
- sn-glycerol-3-phosphate [2]: 0.3221
- succinate/methylmalonic acid [2]: 0.3253
- uridine [2]: -0.3469
- xanthosine [2]: 0.6937

SMILES: Fc1ccc2[nH]c3c(NCCCN4CCOCC4)ncnc3c2c1 [MMV019871]
- EC50 [1]: 345 nM
- Acetyllysine [2]: -0.8876
- N-acetyl-L-ornithine [2]: -0.1209
- N-carbamoyl-L-aspartate [2]: 0.08503
- NADPH [2]: 0.6093
- dAMP [2]: 0.6696
- dCMP [2]: -0.1368
- dTDP [2]: 0.799
- dTMP [2]: 0.8196
- dTTP [2]: 0.3182
- dihydroorotate [2]: 0.6163
- orotate [2]: 0.06699
- DLH [2]: -1.437
- DLS/SDL/SID [2]: -0.7695
- PD [2]: -0.933
- PEE [2]: -0.4641
- PVNF [2]: -1.358
- 3-phosphoglycerate [2]: -0.4045
- ADP-D-glucose [2]: -0.2501
- ATP [2]: -0.2422
- CDP [2]: 0.8712
- D-sedoheptulose-1/7-phosphate [2]: 0.6203
- FAD [2]: -0.1788
- GMP [2]: 0.008366
- NAD+ [2]: -0.1288
- NADP+ [2]: -0.2271
- Octoluse Bisphosphate [2]: -0.5075
- Pyroglutamic acid [2]: 0.06535
- UDP-D-glucose [2]: -0.1274
- UDP-D-glucuronate [2]: -0.1958
- UDP-N-acetyl-glucosamine [2]: -0.09954
- UDP [2]: 0.8844
- UMP [2]: -0.5999
- UTP [2]: -0.2069
- a-ketoglutarate [2]: -0.1645
- citrate/isocitrate [2]: -0.2521
- cytidine [2]: -0.343
- dATP [2]: -0.2053
- dGMP/AMP [2]: 0.4546
- fumarate [2]: -0.6533
- glucose-1/6-phosphate [2]: -0.1277
- glycerate [2]: -0.2409
- guanine [2]: 0.2236
- guanosine [2]: 0.1132
- hypoxanthine [2]: 0.02159
- indole [2]: -0.3008
- inosine [2]: 0.02443
- 2_3-Diphosphoglyceric acid [2]: -0.241
- 4-phosphopantothenate [2]: -0.03538
- 6-phospho-D-gluconate [2]: -0.1618
- FMN [2]: 0.07605
- IMP [2]: 0.1512
- Pyrophosphate [2]: -0.1841
- Sedoheptoluse bisphosphate [2]: -0.3231
- cyclic-AMP [2]: -0.2059
- glutathione disulfide [2]: -0.2521
- lactate [2]: 0.01945
- myo-inositol [2]: 0.08413
- nicotinate [2]: 0.1601
- ornithine [2]: 0.04638
- phosphoenolpyruvate [2]: -0.3024
- pyruvate [2]: 0.2194
- ribose-phosphate [2]: -0.9686
- sarcosine/alanine [2]: -0.2747
- sn-glycerol-3-phosphate [2]: -0.2288
- succinate/methylmalonic acid [2]: -0.1938
- uridine [2]: 0.09395
- xanthosine [2]: -0.4756
